SMILES strings stand for the structures.

The text below walks through data of ChEMBL document CHEMBL2384975, “Combination Therapy: JAK PI3K/mTOR. A Novel Approach for Cancer Treatment” (2013).

Common to all, as to format: functional, BaF3
Assay [1] is described as follows: Anticancer activity against mouse BA/F3 cells expressing JAK2 V617F mutation allografted in Harlan SCID mouse assessed as increase in lifespan at 45 mg/kg, po by luciferase reporter gene assay relative to control. In general terms: In a reporter assay the amount or activity of a reporter protein is the signal.
A short description of assay [2]: Anticancer activity against mouse BA/F3 cells expressing JAK2 V617F mutation allografted in Harlan SCID mouse assessed as mean survival days at 45 mg/kg, po by luciferase reporter gene assay (reference value: 16 days).
Assay [3] in a line: Anticancer activity against mouse BA/F3 cells expressing JAK2 V617F mutation allografted in Harlan SCID mouse assessed as mean survival days at 60 mg/kg, po by luciferase reporter gene assay (reference value: 16 days).
Assay [4] is described as follows: Anticancer activity against mouse BA/F3 cells expressing JAK2 V617F mutation allografted in Harlan SCID mouse assessed as increase in lifespan at 60 mg/kg, po by luciferase reporter gene assay relative to control.

`Cn1c(=O)n(-c2ccc(C(C)(C)C#N)cc2)c2c3cc(-c4cnc5ccccc5c4)ccc3ncc21` [DACTOLISIB]: the Activity in assay [1] stood at 42%. The MSD in assay [2] turned out to be 24 days.

As to `N#CC[C@H](C1CCCC1)n1cc(-c2ncnc3[nH]ccc23)cn1` [RUXOLITINIB], the MSD in assay [3] came to 19 days. The Activity in assay [4] is 19%.
